What follows are molecules tested against His-tagged p53-Y220C DNA binding domain (Homo sapiens, UniProt P04637, Y220C) (assay: Biochemical p53-Y220C and DNA binding assay (HTRF)). Conditions: inflection point of 10 points dose titration, 4 parameter curve fit; p53-Y220C DBD 100 nM, biotinylated dsDNA 200 nM, 27 to 29° C.; read-out: HTRF IP.
From the text: Biological Example 1. Biochemical p53-Y220C and DNA Binding Assay
The compounds of this invention can bind to p53-Y220C and increase the ability of the mutant p53 to bind to DNA at higher temperatures. His-tagged p53-Y220C DNA binding domain containing amino acid 94-312 is used to measure DNA binding activities in vitro with the sequence described below. (SEQ ID NO: 1: […]. Biotin labeled double strand DNA (dsDNA) containing consensus p53 binding sequence (SEQ ID NO: 2: Forward: 5′-(biotin)-[…]-3′; Reverse: 5′-(biotin)-[…]-3′) is used to measure protein-DNA binding activities. Compounds, His-tagged p53-Y220C DBD proteins (100 nM), and biotinylated dsDNA (200 nM) were mixed in ice-cold assay buffer containing DPBS, 20 mM NaCl, and 0.5% BAS, and incubated at 4° C. overnight in 384-well plate. Plates were transferred to incubator at 27 to 29° C. with constant shaking for 60 minutes. Equal volume of Homogeneous Time-Resolved Fluorescence (HTRF) dyes containing mAb anti-6HIS Tb cryptate gold and d2 labeled streptavidin in the assay buffer was added to each well and incubated at 27 to 29° C. with constant shaking for 60 minutes. The plate was read using Envision multimode plate reader. Reference compound 1 was used as high control and DMSO was used as low control. The percentage activation (A %) of protein-DNA binding by compounds was normalized by setting up high control (reference compound) as […] and low control (DMSO) as 0% (A %=(HTRF ratio of compound-HTRF ratio of low control)/(HTRF ratio of high control-HTRF ratio of low control)*500). 10 points dose titration curves for each compound were analyzed by 4 parameter curve fit and inflection point (IP) was reported. Reference compound 1 is shown below Table 1. Compounds of the invention are active in the HTRF assay. Data in Table 1 collected using Biological Example 1.
CC[C@H](CO)O/N=C/c1sc2c(NC3CNCC3F)cccc2c1CC(F)(F)F (stereo in doubt) [Example 1-4, (E)-7-(((3S,4R)-4-fluoropyrrolidin-3-yl)amino)-3-(2,2,2-trifluoroethyl)benzo[b]thiophene-2-carbaldehyde O-((R)-1-hydroxybutan-2-yl) oxime] was tested, and the EC50 was > 1000 nM.
CC(O)(CO/N=C/c1sc2c(N[C@@H]3CNC[C@@H]3F)cccc2c1CC(F)(F)F)c1ccccc1 (stereo in doubt) [Example 1-24, (E)-7-(((3R,4S)-4-fluoropyrrolidin-3-yl)amino)-3-(2,2,2-trifluoroethyl)benzo[b]thiophene-2-carbaldehyde O-(2-hydroxy-2-phenylpropyl) oxime] showed an EC50 of 100 to 1000 nM.
CC[C@@H](O)CO/N=C/c1sc2c(N[C@@H]3CNC[C@@H]3F)cccc2c1CC(F)(F)F [Example 1-1, (E)-7-(((3R,4S)-4-fluoropyrrolidin-3-yl)amino)-3-(2,2,2-trifluoroethyl)benzo[b]thiophene-2-carbaldehyde O-((R)-2-hydroxybutyl) oxime] gave an EC50 of 100 to 1000 nM.
CC[C@@H](CO)O/N=C/c1sc2c(N[C@@H]3CNC[C@@H]3F)cccc2c1CC(F)(F)F [Example 1-2, (E)-7-(((3R,4S)-4-fluoropyrrolidin-3-yl)amino)-3-(2,2,2-trifluoroethyl)benzo[b]thiophene-2-carbaldehyde O-((S)-1-hydroxybutan-2-yl) oxime] was tested, and the EC50 was > 1000 nM.
Work on CC[C@H](O)CO/N=C/c1sc2c(N[C@@H]3CNC[C@@H]3F)cccc2c1CC(F)(F)F [Example 1-3, (E)-7-(((3R,4S)-4-fluoropyrrolidin-3-yl)amino)-3-(2,2,2-trifluoroethyl)benzo[b]thiophene-2-carbaldehyde O-((S)-2-hydroxybutyl) oxime] yielded an EC50 of 100 to 1000 nM.
Molecule OC(CO/N=C/c1sc2c(N[C@@H]3CNC[C@@H]3F)cccc2c1CC(F)(F)F)C(F)(F)F (stereo partly drawn) [Example 1-5, (E)-7-(((3R,4S)-4-fluoropyrrolidin-3-yl)amino)-3-(2,2,2-trifluoroethyl)benzo[b]thiophene-2-carbaldehyde O-(3,3,3-trifluoro-2-hydroxypropyl) oxime] has an EC50 of 100 to 1000 nM.
For OCC(O)CO/N=C/c1sc2c(N[C@@H]3CNC[C@@H]3F)cccc2c1CC(F)(F)F (stereo partly drawn) [Example 1-6, (E)-7-(((3R,4S)-4-fluoropyrrolidin-3-yl)amino)-3-(2,2,2-trifluoroethyl)benzo[b]thiophene-2-carbaldehyde O-(2,3-dihydroxypropyl) oxime], the EC50 was 100 to 1000 nM.
CC(C)(O)CO/N=C/c1sc2c(N[C@@H]3CNC[C@@H]3F)cccc2c1CC(F)(F)F [Example 1-7, (E)-7-(((3R,4S)-4-fluoropyrrolidin-3-yl)amino)-3-(2,2,2-trifluoroethyl)benzo[b]thiophene-2-carbaldehyde O-(2-hydroxy-2-methylpropyl) oxime] was tested, and the EC50 was < 100 nM.
With NCC(O)CO/N=C/c1sc2c(N[C@@H]3CNC[C@@H]3F)cccc2c1CC(F)(F)F (stereo partly drawn) [Example 1-8, (E)-7-(((3R,4S)-4-fluoropyrrolidin-3-yl)amino)-3-(2,2,2-trifluoroethyl)benzo[b]thiophene-2-carbaldehyde O-(3-amino-2-hydroxypropyl)oxime] the EC50 was 100 to 1000 nM.
For NCC(CO)O/N=C/c1sc2c(N[C@@H]3CNC[C@@H]3F)cccc2c1CC(F)(F)F (stereo partly drawn) [Example 1-9, (E)-7-(((3R,4S)-4-fluoropyrrolidin-3-yl)amino)-3-(2,2,2-trifluoroethyl)benzo[b]thiophene-2-carbaldehyde O-(1-amino-3-hydroxypropan-2-yl) oxime], the EC50 was > 1000 nM.
With COCC(O)CO/N=C/c1sc2c(N[C@@H]3CNC[C@@H]3F)cccc2c1CC(F)(F)F (stereo partly drawn) [Example 1-10, (E)-7-(((3R,4S)-4-fluoropyrrolidin-3-yl)amino)-3-(2,2,2-trifluoroethyl)benzo[b]thiophene-2-carbaldehyde O-(2-hydroxy-3-methoxypropyl) oxime] the EC50 was 100 to 1000 nM.
For COCC(CO)O/N=C/c1sc2c(N[C@@H]3CNC[C@@H]3F)cccc2c1CC(F)(F)F (stereo partly drawn) [Example 1-11, (E)-7-(((3R,4S)-4-fluoropyrrolidin-3-yl)amino)-3-(2,2,2-trifluoroethyl)benzo[b]thiophene-2-carbaldehyde O-(1-hydroxy-3-methoxypropan-2-yl) oxime], the EC50 was > 1000 nM.
With OC1(CO/N=C/c2sc3c(N[C@@H]4CNC[C@@H]4F)cccc3c2CC(F)(F)F)CCNC1 (stereo partly drawn) [Example 1-12, (E)-7-(((3R,4S)-4-fluoropyrrolidin-3-yl)amino)-3-(2,2,2-trifluoroethyl)benzo[b]thiophene-2-carbaldehyde O-((3-hydroxypyrrolidin-3-yl)methyl) oxime] the EC50 was 100 to 1000 nM.
With OCC1(O/N=C/c2sc3c(N[C@@H]4CNC[C@@H]4F)cccc3c2CC(F)(F)F)CCNC1 (stereo partly drawn) [Example 1-13, (E)-7-(((3R,4S)-4-fluoropyrrolidin-3-yl)amino)-3-(2,2,2-trifluoroethyl)benzo[b]thiophene-2-carbaldehyde O-(3-(hydroxymethyl)pyrrolidin-3-yl) oxime] the EC50 was > 1000 nM.
OC1(CO/N=C/c2sc3c(N[C@@H]4CNC[C@@H]4F)cccc3c2CC(F)(F)F)CCCC1 [Example 1-14, (E)-7-(((3R,4S)-4-fluoropyrrolidin-3-yl)amino)-3-(2,2,2-trifluoroethyl)benzo[b]thiophene-2-carbaldehyde O-((1-hydroxycyclopentyl)methyl) oxime] showed an EC50 of 100 to 1000 nM.
In the case of OC1(CO/N=C/c2sc3c(N[C@@H]4CNC[C@@H]4F)cccc3c2CC(F)(F)F)CCCOC1 (stereo partly drawn) [Example 1-15, (E)-7-(((3R,4S)-4-fluoropyrrolidin-3-yl)amino)-3-(2,2,2-trifluoroethyl)benzo[b]thiophene-2-carbaldehyde O-((3-hydroxytetrahydro-2H-pyran-3-yl)methyl) oxime], the EC50 is reported as 100 to 1000 nM.
OCC1(O/N=C/c2sc3c(N[C@@H]4CNC[C@@H]4F)cccc3c2CC(F)(F)F)CCCOC1 (stereo partly drawn) [Example 1-16, (E)-7-(((3R,4S)-4-fluoropyrrolidin-3-yl)amino)-3-(2,2,2-trifluoroethyl)benzo[b]thiophene-2-carbaldehyde O-(3-(hydroxymethyl)tetrahydro-2H-pyran-3-yl) oxime] was tested, and the EC50 was > 1000 nM.
OC1CCCC1O/N=C/c1sc2c(N[C@@H]3CNC[C@@H]3F)cccc2c1CC(F)(F)F (stereo partly drawn) [Example 1-17, (E)-7-(((3R,4S)-4-fluoropyrrolidin-3-yl)amino)-3-(2,2,2-trifluoroethyl)benzo[b]thiophene-2-carbaldehyde O-(2-hydroxycyclopentyl) oxime] was tested, and the EC50 was 100 to 1000 nM.
OC1(CO/N=C/c2sc3c(N[C@@H]4CNC[C@@H]4F)cccc3c2CC(F)(F)F)CCC1 [Example 1-18, (E)-7-(((3R,4S)-4-fluoropyrrolidin-3-yl)amino)-3-(2,2,2-trifluoroethyl)benzo[b]thiophene-2-carbaldehyde O-((1-hydroxycyclobutyl)methyl) oxime] showed an EC50 of 100 to 1000 nM.
For OCC1(O/N=C/c2sc3c(N[C@@H]4CNC[C@@H]4F)cccc3c2CC(F)(F)F)CCC1 [Example 1-19, (E)-7-(((3R,4S)-4-fluoropyrrolidin-3-yl)amino)-3-(2,2,2-trifluoroethyl)benzo[b]thiophene-2-carbaldehyde O-(1-(hydroxymethyl)cyclobutyl) oxime], the EC50 was 100 to 1000 nM.
Molecule OC1(CO/N=C/c2sc3c(N[C@@H]4CNC[C@@H]4F)cccc3c2CC(F)(F)F)CCOCC1 [Example 1-20, (E)-7-(((3R,4S)-4-fluoropyrrolidin-3-yl)amino)-3-(2,2,2-trifluoroethyl)benzo[b]thiophene-2-carbaldehyde O-((4-hydroxytetrahydro-2H-pyran-4-yl)methyl) oxime] has an EC50 of 100 to 1000 nM.
